In paper PMC13316043, “Structural basis of NSD2 degradation via targeted recruitment of SCF-FBXO22” (Nature Communications, 2026):

Tests used:
[1] = target: T1, *NSD2 PWWP1 ubiquitination by SCF^FBXO22 (Homo sapiens, UniProt O96028+Q8NEZ5); assay: Ubiquitination assay using purified components; assay type: biochemical; settings: compound at 0.5 µM, fluorescent SDS-PAGE
T1 construct: fluorescently labeled NSD2-PWWP1 (*NSD2-PWWP1); the FIST domain of FBXO22 rather than full-length FBXO22 that is used in the ubiquitination; 6xHis (N, cleaved yes); GST (cleaved yes); made in house; host or cells: SKP1-FBXO22: Trichoplusia ni insect cells; NSD2 PWWP1 and NEDD8: E. coli BL21(DE3)-CodonPlus RIL
T1 sequence (Q8NEZ5 whole entry, one chain of several, the tested form may be a part): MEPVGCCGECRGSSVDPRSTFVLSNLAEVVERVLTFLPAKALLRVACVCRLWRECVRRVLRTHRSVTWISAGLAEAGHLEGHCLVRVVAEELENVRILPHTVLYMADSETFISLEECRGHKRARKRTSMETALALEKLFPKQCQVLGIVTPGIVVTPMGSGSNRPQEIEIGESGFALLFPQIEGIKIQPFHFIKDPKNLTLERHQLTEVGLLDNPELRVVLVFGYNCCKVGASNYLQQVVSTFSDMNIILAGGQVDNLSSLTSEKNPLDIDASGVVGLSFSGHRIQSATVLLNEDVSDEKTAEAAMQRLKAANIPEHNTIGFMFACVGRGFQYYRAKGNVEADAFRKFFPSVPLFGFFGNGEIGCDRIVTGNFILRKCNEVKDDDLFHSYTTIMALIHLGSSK
Procedure: Ubiquitination assays were performed by mixing 2 separate solutions. First, SKP1-FBXO22, fluorescently labeled NSD2-PWWP1 (*NSD2-PWWP1), and compounds, unless otherwise indicated, were pre-incubated for 15 min on ice. Second, UBA1, UBE2R2, UBE2D2 or UBE2L3 and ARIH1, NEDD8 ~ CUL1-RBX1, MgATP, and reaction buffer (20 mM HEPES pH 8, 200 mM NaCl, 0.5 mg/mL bovine serum albumin (BSA)) were combined on ice to generate a master mix. A standard volume of master mix was added to each reaction tube, and Ub was added to initiate the ubiquitination reaction containing 100µM Ub, 1µM SKP1-FBXO22, 0.5µM *NSD2 PWWP1, 0.5µM compound, 0.1µM UBA1, 1µM UBE2R2, 1µM UBE2D2 or 1µM UBE2L3, and 1µM ARIH1, 1µM NEDD8~CUL1-RBX1, and 5mM MgATP in reaction buffer. Ubiquitination assays comparing *NSD2 PWWP1 mutants were performed similarly, except that SKP1-FBXO22, *NSD2 PWWP1 mutants, and compounds were not incubated separately prior to the start of the reaction. The reactions proceeded at room temperature for 15 min until they were quenched by adding SDS Loading Buffer. The ubiquitinated *NSD2 PWWP1 was visualized by subjecting the reactions to SDS-PAGE and imaging using the Amersham Typhoon.

[2] = system: NSD2 and other known FBXO22 substrates; settings: prior work; cited from earlier work
[3] = target: T2, NSD2 (long and short forms) (Homo sapiens, UniProt O96028); assay: Western blot of NSD2 in HEK293T cells; assay type: cell-based; settings: 10 µM, 6 hrs, vs DMSO
T2 sequence (O96028 211-350 limits assumed): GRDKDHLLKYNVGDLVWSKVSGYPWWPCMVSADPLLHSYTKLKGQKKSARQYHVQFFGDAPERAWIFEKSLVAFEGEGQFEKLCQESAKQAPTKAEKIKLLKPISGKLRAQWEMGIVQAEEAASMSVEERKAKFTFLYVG
Procedure: (§1) HEK293T and U2OS were obtained from ATCC and cultured in high-glucose-containing Dulbecco’s Modified Eagle’s Medium (DMEM; Gibco; cat. #11995) supplemented with 10% fetal bovine serum (VWR) and 1% penicillin/streptomycin (Gibco). Cells were treated with either UNC10415667, UNC12149, UNC12567, hemin (Sigma; cat. #H9039), or DMSO control for the indicated times and analyzed by western blot using standard procedures. Briefly, cells were lysed on ice for 15 min in NETN lysis buffer (20 mM Tris pH 8.0, 100 mM NaCl, 0.5 mM EDTA, 0.5% NP40) supplemented with 10 µg/mL aprotinin, 10 µg/mL leupeptin, 10 µg/mL pepstatin A, 1 mM sodium orthovanadate, 1 mM sodium fluoride, and 1 mM AEBSF (4-[two aminoethyl] benzenesulfonyl fluoride). Cell lysates were centrifuged at 20,000×g in a benchtop microcentrifuge at 4 °C for 10 min. Protein concentration was determined by Bradford assay (Bio-Rad; cat. #5000006). Protein concentration was normalized using Laemmli buffer. Samples were heated for 5 min at 95°C in a dry water-bath. Samples were separated on TGX stain free gels (Bio-Rad) transferred to nitrocellulose membrane and blocked in 5% non-fat dry milk (Biorad; cat. #1706404) diluted in 1x TBS-T (137 mM NaCl, 2.7 mM KCl, 25 mM Tris pH 7.6, 1% Tween-20). Primary antibody incubations (Anti-NSD2 (Abcam; Cat# ab75359; Lot# 1093214-1; 1:1000 dilution), Anti-BACH1 (Fortis Life Sciences; Cat# A303-805A; Lot# 1; 1:1000 dilution), and Anti-GAPDH (Santa Cruz Biotechnology; Cat# sc-47724; Lot# C1023; 1:1000 dilution)) were performed overnight at 4 °C. Secondary antibodies (Peroxidase AffiniPure Goat Anti-Rabbit IgG (H + L) (Jackson Immuno; Cat# 111-035-003; 1:5000 dilution) and Peroxidase AffiniPure Goat Anti-Mouse IgG (H + L) (Jackson Immuno; Cat# 115-035-003; 1:5000 dilution)) were incubated for 1 h at room temperature. Blots were developed by chemiluminescence using Pierce ECL (Thermo Fisher Scientific; cat. #32106).

[4] = system: BACH1; assay: Western blot of BACH1 in HEK293T cells; assay type: cell-based, human
Procedure: as §1

[5] = system: FBXO22-NSD2 PWWP1 ternary complex; assay: Size-exclusion chromatography to monitor ternary complex formation; assay type: binding, human
Procedure: Formation of the SCF^FBXO22-UNC10088-NSD2 PWWP1 and SCF^FBXO22-UNC10415667-NSD2 PWWP1 ternary complexes was performed by incubating SKP1-FBXO22, CUL1-RBX1, NSD2 PWWP1, and UNC10088 or UNC10415667 at a 1:1:1:1 molar ratio for 4 h on ice. The SCF^FBXO22-UNC10088-NSD2 PWWP1-BACH1 BTB ternary complex was formed by incubating SKP1-FBXO22, CUL1-RBX1, NSD2 PWWP1, UNC10088, and BACH1 BTB at a 1:1:1:1:1.5 molar ratio for 1 h on ice. The incubated sample was loaded onto a Superdex 200 Increase SD200 column (Cytiva), equilibrated with 20 mM HEPES pH 8, 200 mM NaCl, 1 mM DTT, for size-exclusion chromatography, and fractions containing all subunits of the SCF^FBXO22-Degrader-NSD2 PWWP1 complex were pooled and concentrated. The SCF^FBXO22-UNC10088-NSD2 PWWP1, SCF^FBXO22-UNC10415667-NSD2 PWWP1, and SCF^FBXO22-UNC10088-NSD2 PWWP1-BACH1 BTB complexes were concentrated to 33 µM, 10.9 µM, and 4.1 µM, respectively, and flash frozen. […] In contrast, only the PWWP1 and BTB domains of NSD2 and BACH1, respectively, were used.
FBXO22 WT and variants were incubated on ice with NSD2 PWWP1 and either UNC10088 or UNC10415667 at 5 µM. After 1 h, the samples were centrifuged at 16,060 x g for 10 min at 4 °C. Each sample was examined for C326- and compound-dependent complex formation by comparing the SEC chromatograms and Coomassie-stained SDS-PAGE gels. […] These experiments were performed using a Superdex 200 Increase SD200 column (Cytiva) and 20 mM HEPES pH 8, 200 mM NaCl, 1 mM DTT.

[6] = target: T3, NSD2 (U2OS NSD2-HiBiT cells) (Homo sapiens, UniProt O96028); assay: NSD2 HiBiT degradation assay; assay type: cell-based; settings: U2OS NSD2-HiBit cells, 1 µM, 6 h
T3 construct: RNPs were introduced into U2OS cells by electroporation; endogenous in cells; host or cells: U2OS NSD2-HiBiT clone P112 (CRISPR knock-in)
T3 sequence (O96028 1-1365): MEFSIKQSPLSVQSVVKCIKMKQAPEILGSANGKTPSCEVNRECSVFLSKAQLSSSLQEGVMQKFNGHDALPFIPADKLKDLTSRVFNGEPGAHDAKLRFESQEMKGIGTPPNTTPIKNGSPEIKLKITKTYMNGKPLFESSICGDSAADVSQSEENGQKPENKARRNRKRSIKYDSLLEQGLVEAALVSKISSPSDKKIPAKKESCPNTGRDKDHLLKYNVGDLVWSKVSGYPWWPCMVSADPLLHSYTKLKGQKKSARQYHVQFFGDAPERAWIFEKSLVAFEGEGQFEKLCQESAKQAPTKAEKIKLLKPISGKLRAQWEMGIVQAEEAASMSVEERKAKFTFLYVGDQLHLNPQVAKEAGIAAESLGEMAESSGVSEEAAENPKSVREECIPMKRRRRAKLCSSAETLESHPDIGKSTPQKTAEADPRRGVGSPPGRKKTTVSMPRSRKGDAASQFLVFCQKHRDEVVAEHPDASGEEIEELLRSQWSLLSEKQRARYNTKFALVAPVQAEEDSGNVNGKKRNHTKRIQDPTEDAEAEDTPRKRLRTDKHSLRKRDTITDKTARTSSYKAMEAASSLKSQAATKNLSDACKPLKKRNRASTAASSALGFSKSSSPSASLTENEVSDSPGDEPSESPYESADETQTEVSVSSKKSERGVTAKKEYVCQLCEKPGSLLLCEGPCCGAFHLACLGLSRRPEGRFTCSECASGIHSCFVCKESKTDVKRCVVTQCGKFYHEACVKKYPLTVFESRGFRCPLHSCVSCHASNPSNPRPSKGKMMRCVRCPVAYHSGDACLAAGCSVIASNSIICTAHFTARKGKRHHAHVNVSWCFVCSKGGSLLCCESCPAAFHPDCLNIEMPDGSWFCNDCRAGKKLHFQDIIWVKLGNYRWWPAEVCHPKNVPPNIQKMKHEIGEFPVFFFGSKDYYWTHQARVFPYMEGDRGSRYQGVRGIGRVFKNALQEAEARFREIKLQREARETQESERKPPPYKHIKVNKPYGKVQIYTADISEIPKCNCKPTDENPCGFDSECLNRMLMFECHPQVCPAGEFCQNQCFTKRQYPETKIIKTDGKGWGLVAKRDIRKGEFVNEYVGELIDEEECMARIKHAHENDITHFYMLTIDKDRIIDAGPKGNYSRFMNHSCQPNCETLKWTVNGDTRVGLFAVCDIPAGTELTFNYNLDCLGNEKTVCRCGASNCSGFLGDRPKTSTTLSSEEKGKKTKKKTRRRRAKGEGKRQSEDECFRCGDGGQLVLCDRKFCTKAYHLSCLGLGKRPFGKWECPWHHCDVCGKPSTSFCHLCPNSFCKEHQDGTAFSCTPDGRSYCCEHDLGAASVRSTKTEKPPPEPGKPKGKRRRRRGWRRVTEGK
Source text: The NSD2 genomic sequence was obtained from the UCSC genome browser and used to design sgRNAs to introduce HiBiT tags at either the 5’ or 3’ ends of the gene. sgRNA were assembled into RNPs using TrueCut Cas9 Protein v2 (Invitrogen, Cat#A36497), an sgRNA crRNA:tracrRNA duplex (below; IDT) and ssODN (below; IDT). RNPs were introduced into U2OS cells by electroporation using a Neon XT electroporation system (1750 V, 10 ms, 3 pulses) in R-buffer, using Thermo Fisher Neon transfection kit (Cat# MPK1025K) and according to the manufacturer's protocol. After plating for recovery for four days, single cell clones limited dilution cloning. Single cell clones that grew out were identified as containing integrated HiBiT tags on NSD2 by performing HiBiT assays using HiBiT lytic assay (Promega: N3040) and read on a plate reader. Clones were further confirmed by PCR analysis.
To test compounds for NSD2 degradation, a compound plate was prepared by diluting compounds in DMSO into cell media in a 384-deep-well plate (Revvity). Then, 6 µL of the diluted compounds were transferred into the well of the 384-well assay plate (Corning). 24 µL of the NSD2 HiBiT U2OS P112 cells or parental U2OS cells (3000 cells/well) were added to each well to make a final volume of 30 µL with a 0.1% final DMSO concentration. For multiple time points, multiple assay plates were made and incubated in the incubator at 37 °C in 5% CO2 for 3/6/12/24/48 hrs. 10 min before the reading, the assay plate and the Nano-Glo HiBiT Lytic Detection System (Promega) were brought to room temperature. The HiBiT lytic reagent master mix was prepared according to the product instructions and added to the assay plate. The plate was then incubated on an orbital shaker for 5 min at room temperature, equilibrated for 10 min, and then read using the GloMax luminometer (Promega) for luminescence detection. Compound treatment was normalized to the DMSO control with the background subtraction using the parental U2OS cell line as the background control, plated alongside the HiBiT U2OS P112 cells. The data and graphs were then analyzed and generated using GraphPad Prism (v 10.4.1). DC50 and Dmax were calculated by fitting the data to a non-linear regression curve.

For `NCCCCCC(=O)N1CCc2cc(NC(=O)c3ccc(CN(C(=O)c4ccc5c(c4)OCC(=O)N5)C4CC4)cc3)ccc2C1` [UNC8732], the “SCF^FBXO22-dependent ubiquitination of *NSD2 PWWP1” value [1] is listed as “no effect” and the “selectivity of degradation in global proteomics” value [2] is listed as “specifically degrades NSD2”.
In the case of `CC(C)N(Cc1ccc(C(=O)Nc2ccc3c(c2)CCN(C(=O)c2ccc(C=O)cc2)C3)cc1)C(=O)c1ccc2c(c1)OCC(=O)N2` [UNC12567], the “NSD2 levels by immunoblot” value [3] is reported as “unchanged”, the “BACH1 levels by immunoblot” value ([4]; 10 µM, 6 hrs) is reported as “unchanged” and the “ternary complex formation between FBXO22 and NSD2 PWWP1 by SEC” value [5] is reported as “did not support ternary complex formation”.
For `O=Cc1ccc(CC(=O)N2CCc3cc(NC(=O)c4ccc(CN(C(=O)c5ccc6c(c5)OCC(=O)N6)C5CC5)cc4)ccc3C2)cc1` [UNC10415668], the “reduction of NSD2 levels” value [6] was “more modest effect” and the “SCF^FBXO22-dependent ubiquitination of *NSD2 PWWP1” value [1] was “able to induce polyubiquitination”.
With Hemin [reference compound] the “BACH1 degradation by immunoblot” value ([4]; 20 µM Hemin) was “degradation was promoted”.
